Measured values as given in patent publication US20160095843A1, “PYRAZOLOPYRROLIDINE DERIVATIVES AND THEIR USE IN THE TREATMENT OF DISEASE” (NOVARTIS AG, priority 2013, published 2016).

How the values were obtained:
MV-4-11 cells = assay: Cell growth inhibition assay (CellTiter-Glo), MV-4-11; assay type: cell-based; details: Homo sapiens, MV4-11
Method in brief: (§1)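 Leukemia lines grown in their own media were exposed for 4 days at 37° C. to 3-fold serial dilutions from 10 μM (0.1% DMSO). Viability by CellTiter-Glo ATP luminescence, corrected for background and day-0 plate; IC50 and TGI from four-parameter fit against vehicle (100%) and medium (−100%).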

THP-1 cells = assay: Cell growth inhibition assay (CellTiter-Glo), THP-1; assay type: cell-based; details: Homo sapiens
Method in brief: as §1

K-562 cells = assay: Cell growth inhibition assay (CellTiter-Glo), K-562; assay type: cell-based, human; details: Homo sapiens, K562
Method in brief: as §1

Structure (SMILES)	GI50 (MV-4-11 cells) [nM]	GI50 (THP-1 cells) [nM]	GI50 (K-562 cells) [nM]
CCn1nc2c(c1C)C(c1ccc(Cl)cc1F)N(c1cc(C)c(=O)n(C)c1)C2=O (stereo not drawn) [Example 171, 4-(4-chloro-2-fluorophenyl)-5-(1,5-dimethyl-6-oxo-1,6-dihydropyridin-3-yl)-2-ethyl-3-methyl-4,5-dihydropyrrolo[3,4-c]pyrazol-6(2H)-one]	93.8	118	442
Cc1n[nH]c2c1C(c1ccc(F)cc1F)N(c1cc(C)c3nnc(C)n3c1)C2=O (stereo not drawn) [Example 172, 4-(2,4-difluorophenyl)-5-(3,8-dimethyl-[1,2,4]triazolo[4,3-a]pyridin-6-yl)-3-methyl-4,5-dihydropyrrolo[3,4-c]pyrazol-6(2H)-one]	176	254	1080
COc1ncccc1-n1nc(C)c2c1C(=O)N(c1cc(C)c3nnc(C)n3c1)C2c1ccc(F)cc1F (stereo not drawn) [Example 173, 4-(2,4-difluorophenyl)-5-(3,8-dimethyl-[1,2,4]triazolo[4,3-a]pyridin-6-yl)-1-(2-methoxypyridin-3-yl)-3-methyl-4,5-dihydropyrrolo-[3,4-c]pyrazol-6(1H)-one]	57.1	91.6	328
COc1ccccc1-n1nc(C)c2c1C(=O)N(c1cc(C)c3nnc(C)n3c1)C2c1ccc(F)cc1F (stereo not drawn) [Example 177, 4-(2,4-difluorophenyl)-5-(3,8-dimethyl-[1,2,4]triazolo[4,3-a]pyridin-6-yl)-1-(2-methoxyphenyl)-3-methyl-4,5-dihydropyrrolo-[3,4-c]pyrazol-6(1H)-one]	67.5	64.4	331
Cc1nn(C2CC2)c2c1C(c1ccc(Cl)cc1F)N(c1cc(C)c(=O)n(C)c1)C2=O (stereo not drawn) [Example 179, 4-(4-chloro-2-fluorophenyl)-1-cyclopropyl-5-(1,5-dimethyl-6-oxo-1,6-dihydropyridin-3-yl)-3-methyl-4,5-dihydropyrrolo[3,4-c]pyrazol-6(1H)-one]	77.4	112	372
Cc1nn(C(C)C)c2c1C(c1ccc(Cl)cc1F)N(c1cc(C)c(=O)n(C)c1)C2=O (stereo not drawn) [Example 180, 4-(4-chloro-2-fluorophenyl)-5-(1,5-dimethyl-6-oxo-1,6-dihydropyridin-3-yl)-1-isopropyl-3-methyl-4,5-dihydropyrrolo[3,4-c]pyrazol-6(1H)-one]	68	81.4	266
CCn1nc2c(c1C)C(c1ccc(F)cc1F)N(c1cc(C)c3nnc(C)n3c1)C2=O (stereo not drawn) [Example 182, 4-(2,4-difluorophenyl)-5-(3,8-dimethyl-[1,2,4]triazolo[4,3-a]pyridin-6-yl)-2-ethyl-3-methyl-4,5-dihydropyrrolo-[3,4-c]pyrazol-6(2H)-one]	63.2	87.5	280
Cc1n[nH]c2c1C(c1ccc(Cl)cc1F)N(c1cc(C)c3nnc(C)n3c1)C2=O (stereo not drawn) [Example 183, 4-(4-chloro-2-fluorophenyl)-5-(3,8-dimethyl-[1,2,4]triazolo[4,3-a]pyridin-6-yl)-3-methyl-4,5-dihydropyrrolo-[3,4-c]pyrazol-6(2H)-one]	76.1	135	659
COc1ncccc1-n1nc(C)c2c1C(=O)N(c1cc(C)c3nnc(C)n3c1)C2c1ccc(Cl)cc1F (stereo not drawn) [Example 184, 4-(4-chloro-2-fluorophenyl)-5-(3,8-dimethyl-[1,2,4]triazolo[4,3-a]pyridin-6-yl)-1-(2-methoxypyridin-3-yl)-3-methyl-4,5-dihydropyrrolo-[3,4-c]pyrazol-6(1H)-one]	59.6	131	394
COc1ccccc1-n1nc(C)c2c1C(=O)N(c1cc(C)c3nnc(C)n3c1)C2c1ccc(Cl)cc1F (stereo not drawn) [Example 187, 4-(4-chloro-2-fluorophenyl)-5-(3,8-dimethyl-[1,2,4]triazolo[4,3-a]pyridin-6-yl)-1-(2-methoxyphenyl)-3-methyl-4,5-dihydropyrrolo-[3,4-c]pyrazol-6(1H)-one]	144	168	655
COc1ncccc1-n1nc2c(c1C)C(c1ccc(F)cc1F)N(c1cc(C)c3nnc(C)n3c1)C2=O (stereo not drawn) [Example 193, 4-(2,4-difluorophenyl)-5-(3,8-dimethyl-[1,2,4]triazolo[4,3-a]pyridin-6-yl)-2-(2-methoxypyridin-3-yl)-3-methyl-4,5-dihydropyrrolo-[3,4-c]pyrazol-6(2H)-one]	58	66.2	202
COc1ncccc1-n1nc2c(c1C)C(c1ccc(Cl)cc1F)N(c1cc(C)c3nnc(C)n3c1)C2=O (stereo not drawn) [Example 194, 4-(4-chloro-2-fluorophenyl)-5-(3,8-dimethyl-[1,2,4]triazolo[4,3-a]pyridin-6-yl)-2-(2-methoxypyridin-3-yl)-3-methyl-4,5-dihydropyrrolo-[3,4-c]pyrazol-6(2H)-one]	48.6	73.2	245
Cc1[nH]nc2c1C(c1ccc(Cl)cc1F)N(c1cc(C)c(=O)n(C)c1)C2=O (stereo not drawn) [Example 196, 4-(4-chloro-2-fluorophenyl)-5-(1,5-dimethyl-6-oxo-1,6-dihydropyridin-3-yl)-3-methyl-4,5-dihydropyrrolo-[3,4-c]pyrazol-6(2H)-one]	144	204	921

Stronger by GI50 (MV-4-11 cells), values ahead:

GI50 (MV-4-11 cells) [nM]	GI50 (THP-1 cells) [nM]	GI50 (K-562 cells) [nM]	Structure (SMILES)
31.1	50.5	276	Cc1cc(N2C(=O)c3nn(C(C)C)c(C)c3C2c2ccc(Cl)cc2F)cn2c(C)nnc12 (stereo not drawn) [Example 169, 4-(4-chloro-2-fluorophenyl)-5-(3,8-dimethyl-[1,2,4]triazolo[4,3-a]pyridin-6-yl)-2-isopropyl-3-methyl-4,5-dihydropyrrolo[3,4-c]pyrazol-6(2H)-one]
7.66	13.4	48.5	CCn1nc(C)c2c1C(=O)N(c1cc(C)c(=O)n(C)c1)C2c1ccc(Cl)cc1F (stereo not drawn) [Example 170, 4-(4-chloro-2-fluorophenyl)-5-(1,5-dimethyl-6-oxo-1,6-dihydropyridin-3-yl)-1-ethyl-3-methyl-4,5-dihydropyrrolo-[3,4-c]pyrazol-6(1H)-one]
26.7	43.8	158	Cc1nn(C(C)C)c2c1C(c1ccc(F)cc1F)N(c1cc(C)c3nnc(C)n3c1)C2=O (stereo not drawn) [Example 174, 4-(2,4-difluorophenyl)-5-(3,8-dimethyl-[1,2,4]triazolo[4,3-a]pyridin-6-yl)-1-isopropyl-3-methyl-4,5-dihydropyrrolo[3,4-c]pyrazol-6(1H)-one]
42.2	66.2	192	Cc1cc(N2C(=O)c3nn(C(C)C)c(C)c3C2c2ccc(F)cc2F)cn2c(C)nnc12 (stereo not drawn) [Example 175, 4-(2,4-difluorophenyl)-5-(3,8-dimethyl-[1,2,4]triazolo[4,3-a]pyridin-6-yl)-2-isopropyl-3-methyl-4,5-dihydropyrrolo-[3,4-c]pyrazol-6(2H)-one]
30.3	55.6	145	Cc1nn(C2CC2)c2c1C(c1ccc(F)cc1F)N(c1cc(C)c3nnc(C)n3c1)C2=O (stereo not drawn) [Example 176, 1-cyclopropyl-4-(2,4-difluorophenyl)-5-(3,8-dimethyl-[1,2,4]triazolo[4,3-a]pyridin-6-yl)-3-methyl-4,5-dihydropyrrolo-[3,4-c]pyrazol-6(1H)-one]
28.2	42.5	137	Cc1nn(C2CC2)c2c1C(c1ccc(Cl)cc1F)N(c1cc(C)c3nnc(C)n3c1)C2=O (stereo not drawn) [Example 178, 4-(4-chloro-2-fluorophenyl)-1-cyclopropyl-5-(3,8-dimethyl-[1,2,4]triazolo[4,3-a]pyridin-6-yl)-3-methyl-4,5-dihydropyrrolo[3,4-c]pyrazol-6(1H)-one]
47.1	51.9	160	CCn1nc(C)c2c1C(=O)N(c1cc(C)c3nnc(C)n3c1)C2c1ccc(F)cc1F (stereo not drawn) [Example 181, 4-(2,4-difluorophenyl)-5-(3,8-dimethyl-[1,2,4]triazolo[4,3-a]pyridin-6-yl)-1-ethyl-3-methyl-4,5-dihydropyrrolo[3,4-c]pyrazol-6(1H)-one]
24.2	36.8	136	CCn1nc(C)c2c1C(=O)N(c1cc(C)c3nnc(C)n3c1)C2c1ccc(Cl)cc1F (stereo not drawn) [Example 185, 4-(4-chloro-2-fluorophenyl)-5-(3,8-dimethyl-[1,2,4]triazolo[4,3-a]pyridin-6-yl)-1-ethyl-3-methyl-4,5-dihydropyrrolo-[3,4-c]pyrazol-6(1H)-one]
44.1	61.5	208	CCn1nc2c(c1C)C(c1ccc(Cl)cc1F)N(c1cc(C)c3nnc(C)n3c1)C2=O (stereo not drawn) [Example 186, 4-(4-chloro-2-fluorophenyl)-5-(3,8-dimethyl-[1,2,4]triazolo[4,3-a]pyridin-6-yl)-2-ethyl-3-methyl-4,5-dihydropyrrolo-[3,4-c]pyrazol-6(2H)-one]
14.1	11.3	88.5	Cc1nn(C(C)C)c2c1[C@@H](c1ccc(Cl)cc1F)N(c1cc(C)c3nnc(C)n3c1)C2=O [Example 189, (S)-4-(4-chloro-2-fluorophenyl)-5-(3,8-dimethyl-[1,2,4]triazolo[4,3-a]pyridin-6-yl)-1-isopropyl-3-methyl-4,5-dihydropyrrolo[3,4-c]pyrazol-6(1H)-one]
23.9	30.3	127	Cc1nn(C2CC2)c2c1C(c1ccc(Cl)cc1)N(c1cc(C)c3nnc(C(F)F)n3n1)C2=O (stereo not drawn) [Example 195, 4-(4-chlorophenyl)-1-cyclopropyl-5-(3-(difluoromethyl)-8-methyl-[1,2,4]triazolo[4,3-b]pyridazin-6-yl)-3-methyl-4,5-dihydropyrrolo-[3,4-c]pyrazol-6(1H)-one]
